According to patent US20250127782A1, “METHODS OF TREATING CANCER” (AMGEN INC., priority 2021, published 2025):

What was measured:
[1] = Phase 1 study of midazolam with sotorasib; settings: 2 mg midazolam with 960 mg sotorasib after 14 days of daily sotorasib vs midazolam alone; 5 subjects
[2] = Phase 1 study of digoxin with sotorasib; format: in vivo, human
Description: PK parameters were estimated using non-compartmental methods. Safety and tolerability were monitored throughout the study.

[3] = Study 20190135 Subprotocol H: sotorasib pharmacokinetics in combination with panitumumab
[4] = Study 20170543 (CodeBreaK 100): sotorasib monotherapy pharmacokinetics; settings: for AUC(0-t): AUC0-24h
[5] = system: CRC; test: Study 20170543 Phase 2 CRC cohort, sotorasib monotherapy; format: in vivo, human
Description: A data snapshot was taken on Jun. 9, 2022.

[6] = Phase 1 study of sotorasib with rifampin; format: in vivo, human
[7] = system: KRAS G12C mutated CRC; test: Study 20190135 Subprotocol H, sotorasib + panitumumab: safety and tolerability (DLTs, TRAEs)
Description: Accordingly, the primary endpoint will include an assessment of dose limiting toxicities, treatment-emergent and treatment-related adverse events.
The grading of AEs will be based on the guidelines provided in the CTCAE version 5.0. […] A Hy's Law case is defined as: AST or ALT values of ≥3×ULN AND with serum total bilirubin level (TBL) of >2×ULN without signs of cholestasis and with no other clear alternative reason to explain the observed liver related laboratory abnormalities.

[8] = Phase 1 study of sotorasib with omeprazole under fasted conditions; format: in vivo, human
[9] = Phase 1 study of sotorasib with famotidine or omeprazole under fed conditions; format: in vivo, human
Description: Safety and tolerability monitoring was performed throughout the study.

[10] = system: extracellular signal-regulated kinase (ERK); settings: preclinical studies; cited from earlier work
[11] = 0.5 mg digoxin coadministered with 960 mg sotorasib
[12] = with a single dose of sotorasib vs digoxin alone
[13] = Jun. 24, 2022 data cut-off, combination therapy with panitumumab (n=35)
[14] = human, plasma, oral, day 1, monotherapy (CodeBreaK 100), comparison in Aug. 6, 2021 data cut
[15] = 960 mg sotorasib with single dose of 600 mg rifampin
[16] = Aug. 6, 2021 data cut, 31 patients on the combination
[17] = Jun. 24, 2022 data cut-off, 40 patients on the combination
[18] = with omeprazole vs sotorasib alone, fasted state
[19] = famotidine 10 hours prior to and 2 hours after a single dose of sotorasib
[20] = repeat doses of omeprazole with a single dose of sotorasib

Compound: Cc1ncc2n1-c1ccc(Cl)cc1C(c1ccccc1F)=NC2 [midazolam]
- decrease of midazolam AUV [1]: 53%
- decrease of midazolam Cmax [1]: 48%

Compound: C[C@H]1O[C@@H](O[C@H]2[C@@H](O)C[C@H](O[C@H]3[C@@H](O)C[C@H](O[C@H]4CC[C@@]5(C)[C@H](CC[C@@H]6[C@@H]5C[C@@H](O)[C@]5(C)[C@@H](C7=CC(=O)OC7)CC[C@]65O)C4)O[C@@H]3C)O[C@@H]2C)C[C@H](O)[C@@H]1O [digoxin]
- Geometric mean digoxin AUCinf ([2]; 0.5 mg digoxin alone): 33.2 ng·h/mL
- Geometric mean digoxin Cmax ([2]; 0.5 mg digoxin alone): 1.90 ng/mL
- Geometric mean digoxin AUCinf [2, 11]: 40.3 ng·h/mL
- Geometric mean digoxin Cmax [2, 11]: 3.64 ng/mL
- Digoxin median tmax and mean terminal half-life (t1/2) with sotorasib compared to digoxin alone ([2]; 0.5 mg digoxin with 960 mg sotorasib vs alone): similar
- safety and tolerability ([2]; single doses of 0.5 mg digoxin alone or with 960 mg sotorasib): safe and well tolerated
- increase of digoxin AUCinf [2, 12]: approximately 21%
- increase of digoxin Cmax [2, 12]: ~91%

Compound: C=CC(=O)N1CCN(c2nc(=O)n(-c3c(C)ccnc3C(C)C)c3nc(-c4c(O)cccc4F)c(F)cc23)[C@@H](C)C1 (atropisomer, axis not shown; (M)) [sotorasib, 6-fluoro-7-(2-fluoro-6-hydroxyphenyl)-(1M)-1-[4-methyl-2-(propan-2-yl)pyridin-3-yl]-4-[(2S)-2-methyl-4-(prop-2-enoyl)piperazin-1-yl]pyrido[2,3-d]pyrimidin-2(1H)-one]
- AUC0-24h ([3]; Aug. 6, 2021 data cut, day 1, combination therapy with panitumumab): 77200 ng·h/mL
- AUC0-24h, mean (CV %) [3, 13]: 65.8 (56%) h*μg/mL
- Cmax, mean (CV %) [3, 13]: 9.64 (55%) μg/mL
- tmax, median (range) ([4]; 180 mg, Day 8): 0.75 (0.50-1.0) hr
- tmax, median (range) ([4]; 960 mg, Day 1): 2.0 (0.25-6.0) hr
- dose proportionality of exposure ([4]; 180 to 960 mg PO QD, day 1 and day 8): less than dose-proportional
- Tmax ([4]; after PO administration, 180 to 960 mg PO QD): 1 to 2 h
- Tmax ([4]; human, plasma, oral): 1.9 h
- AUC(0-t) [4, 14]: 103000 ng·h/mL
- AUC(0-t) ([4]; human, plasma, oral, mean (CV %), monotherapy (n=32, CodeBreaK 100), comparison in Jun. 24, 2022 data cut-off): 65300 ng·h/mL
- Cmax [4, 14]: 9710 ng/mL
- Cmax ([4]; human, plasma, oral, day 8, monotherapy (CodeBreaK 100), comparison in Aug. 6, 2021 data cut): 6500 ng/mL
- Tmax ([4]; human, plasma, oral, tmax, day 8, monotherapy (CodeBreaK 100), comparison in Aug. 6, 2021 data cut): 2 h
- Tmax ([4]; human, plasma, oral, tmax, median (range), monotherapy (n=32, CodeBreaK 100), comparison in Jun. 24, 2022 data cut-off): 2 h
- accumulation with multiple dosing ([4]; multiple PO QD dosing for 8 days): no accumulation
- response rate [5]: 10%
- Geometric mean sotorasib AUCinf ([6]; 960 mg sotorasib alone): 25600 ng·h/mL
- Geometric mean sotorasib Cmax ([6]; 960 mg sotorasib alone): 6350 ng/mL
- Geometric mean sotorasib Cmax ([6]; 960 mg sotorasib with multiple doses of 600 mg rifampin): 4110 ng/mL
- Geometric mean sotorasib AUCinf [6, 15]: 19600 ng·h/mL
- Geometric mean sotorasib Cmax [6, 15]: 5340 ng/mL
- safety and tolerability ([6]; coadministered with 600 mg rifampin or alone, healthy subjects): safe and well tolerated
- CYP3A4 substrate status ([6]; inferred from multiple doses of rifampin): is a CYP3A4 substrate
- OATP1B1 substrate status ([6]; inferred from single dose of rifampin): not a substrate of OATP1B1
- decrease of sotorasib AUCinf ([6]; multiple doses of rifampin): 51%
- decrease of sotorasib Cmax ([6]; multiple doses of rifampin): 35%
- effect of single dose of rifampin on sotorasib PK ([6]; single dose of rifampin): did not have a clinically meaningful effect
- TRAEs of any grade related to the named drug ([7]; Apr. 23, 2021 data cut, 8 patients on sotorasib 960 mg QD + panitumumab 6 mg/kg IV Q2W): 4 patients
- TRAEs leading to dose modification of the named drug ([7]; Apr. 23, 2021 data cut, 8 patients on the combination): 1 patients
- TRAEs of any grade related to the named drug, % of patients [7, 16]: 45.2%
- TRAEs of any grade related to the named drug, number of patients [7, 16]: 14 patients
- TRAEs resulting in dose modification of the named drug, % of patients [7, 16]: 9.7%
- TRAEs resulting in dose modification of the named drug, number of patients [7, 16]: 3 patients
- TRAEs of any grade related to the named drug, % of patients [7, 17]: 65%
- TRAEs of any grade related to the named drug, number of patients [7, 17]: 26 patients
- TRAEs resulting in dose modification of the named drug, % of patients [7, 17]: 15%
- TRAEs resulting in dose modification of the named drug, number of patients [7, 17]: 6 patients
- mean terminal half-life (t1/2) with omeprazole compared to sotorasib alone ([8]; 960 mg sotorasib with 40 mg omeprazole vs alone, fasted): similar
- safety and tolerability ([8]; coadministered with 40 mg omeprazole or alone, healthy subjects): safe and well tolerated
- decrease of sotorasib AUCinf [8, 18]: 42%
- decrease of sotorasib Cmax [8, 18]: 57%
- safety and tolerability ([9]; 960 mg sotorasib with 40 mg famotidine or multiple daily 40 mg omeprazole, healthy subjects): safe and well tolerated
- decrease of sotorasib AUC [9, 19]: 38%
- decrease of sotorasib Cmax [9, 19]: 35%
- decrease of sotorasib AUC [9, 20]: 57%
- decrease of sotorasib Cmax [9, 20]: 65%
- phosphorylation of extracellular signal-regulated kinase (ERK) [10]: inhibited nearly all detectable phosphorylation
